Among the data in US20250206758A1, “SUBSTITUTED BRIDGED RING INHIBITOR, PREPARATION METHOD THEREFOR AND APPLICATION THEREOF” (SUZHOU ZELGEN BIOPHARMACEUTICALS CO., LTD., priority 2022, published 2025) are IC50 values, retold here.

For orientation: IC50 means the concentration at which inhibition is half-maximal. High values mean a need for much substance, low ones inhibition by little substance.

Where two headings read alike, the source gives them in different places.

The subject of assay [1] is AsPC-1. The assay is described as follows: Cell proliferation inhibition, AsPC-1 (CellTiter-Glo 3D, 7 days). The format is cell-based. The following applies: AsPC-1, 7 days. The method, then:
(§1) • (a) Resuscitating cells in T75 cell culture flask: • (b) When the cell confluence reaches 80-90%, subculturing the cells.
(§2) The diluted test compound was added to a 384-well cell culture plate with a nanoliter pipetting system, and duplicate wells were set up. An equal volume of culture medium was added to the positive control group; and an equal volume of DMSO was added to the negative control group, then centrifugation was conducted at 1000 rpm for 1 min at room temperature.
(§3) Cells were inoculated into a) 384-well culture plate, with an equal volume of cells added to the negative control group, and only an equal volume of culture medium added to the positive control group. The plate was centrifuged at 1000 rpm for 1 min at room temperature, and the final DMSO concentration of the compound was 0.5% at last. The plate was placed in a 37° C., 5% CO2 constant temperature incubator for 7 days.
(§4) 20 μL/well of CellTiter-Glo® 3D to b) was added to 384-well cell culture plate, and the plate was shook at 320 rpm for 20 min in the dark, and incubated at room temperature in the dark for 2 hrs.
(§5) The luminescence value was read using an Envision multi-functional microplate reader.
(§6) The inhibition rate (IR) of the test compound was calculated using the following formula: IR (%)=(1−(RLU compound−RLU blank control)/(RLU meidum control−RLU blank control))*100%. The inhibition rates of different concentrations of compounds were calculated in Excel, and then the inhibition curves were plotted and the related parameters (including the minimum inhibition rate, maximum inhibition rate and IC50) were calculated using GraphPad Prism software.
(Cellular ATP, detected with luciferase, serves as a proxy for viable cell number.)

Assay [2] deals with GP2D. The assay is described as follows: Cell proliferation inhibition, GP2D (CellTiter-Glo 3D, 7 days). The format is cell-based. The method, then: as §1, §2, §3, §4, §5, §6

Turning to `C#Cc1c(F)ccc2cc(O)cc(-c3ncc4c(N5C[C@H]6CC[C@@H](C5)N6)nc(OC[C@]56C[C@H](F)CN5C[C@]5(CC5(F)F)C6)nc4c3F)c12` [Example 15F, 4-(4-((1R,5S)-3,8-diazabicyclo[3.2.1]octan-3-yl)-8-fluoro-2-(((1R,6'S,7a'S)-2,2,6′-trifluorodihydro-1′H,3′H-spiro[cyclopropan-1,2′-pyrrolizin]-7a′(5′H)-yl)methoxy)pyridino[4,3-d]pyrimidin-7-yl)-5-ethynyl-6-fluoronaphthalen-2-ol], the IC50 in assay [1] (Homo sapiens, ASPC1, 168 h) was more than 1000 nM; in assay [2] (168 h), more than 100 nM.

Take `C#Cc1c(F)ccc2cc(O)cc(-c3ncc4c(N5C[C@H]6CC[C@@H](C5)N6)nc(OC[C@@]56C[C@H](F)CN5C[C@@]5(CC5(F)F)C6)nc4c3F)c12` [Example 15G, 4-(4-((1R,5S)-3,8-diazabicyclo[3.2.1]octan-3-yl)-8-fluoro-2-(((1S,6'S,7a′R)-2,2,6′-trifluorodihydro-1′H,3′H-spiro[cyclopropan-1,2′-pyrrolizin]-7a′(5′H)-yl)methoxy)pyridino[4,3-d]pyrimidin-7-yl)-5-ethynyl-6-fluoronaphthalen-2-ol]: the IC50 stood at 329 nM in assay [1] (Homo sapiens, ASPC1, 168 h) and 39.1 nM in assay [2] (168 h).

Consider `C#Cc1c(F)ccc2cc(O)cc(-c3ncc4c(N5C[C@H]6CC[C@@H](C5)N6)nc(OC[C@@]56C[C@H](F)CN5C[C@]5(CC5(F)F)C6)nc4c3F)c12` [Example 15H, 4-(4-((1R,5S)-3,8-diazabicyclo[3.2.1]octan-3-yl)-8-fluoro-2-(((1R,6'S,7a′R)-2,2,6′-trifluorodihydro-1′H,3′H-spiro[cyclopropan-1,2′-pyrrolizin]-7a′(5′H)-yl)methoxy)pyridino[4,3-d]pyrimidin-7-yl)-5-ethynyl-6-fluoronaphthalen-2-ol], for which the IC50 was determined as 226 nM in assay [1] (Homo sapiens, ASPC1, 168 h) and 9.3 nM in assay [2] (168 h).

`C#Cc1c(F)ccc2cc(O)cc(-c3ncc4c(N5C[C@H]6CC[C@@H](C5)N6)nc(OC[C@]56CCCN5C[C@]5(CC5(F)F)C6)nc4c3F)c12` [Example 16B-2, 4-(4-((1R,5S)-3,8-diazabicyclo[3.2.1]octan-3-yl)-2-(((1R,7a′R)-2,2-difluorodihydro-1′H,3′H-spiro[cyclopropan-1,2′-pyrrolizin]-7a′(5′H)-yl)methoxy)-8-fluoropyridino[4,3-d]pyrimidin-7-yl)-5-ethynyl-6-fluoronaphthalen-2-ol]: the IC50 in assay [1] (Homo sapiens, ASPC1, 168 h) turned out to be 9.22 nM; in assay [2] (168 h), 1.55 nM.

In the case of `CCc1c(F)ccc2cc(O)cc(-c3ncc4c(N5CC6CCC(C5)N6)nc(OC[C@@]56CCCN5C[C@@]5(CC5(F)F)C6)nc4c3F)c12` [Example 17A], the IC50 stood at 1.07 nM in assay [1] (Homo sapiens, ASPC1, 168 h) and 0.26 nM in assay [2] (168 h).

Consider `CCc1c(F)ccc2cc(O)cc(-c3ncc4c(N5CC6CCC(C5)N6)nc(OC[C@]56CCCN5C[C@]5(CC5(F)F)C6)nc4c3F)c12` [Example 17B], for which the IC50 in assay [1] (Homo sapiens, ASPC1, 168 h) amounted to 7.84 nM; in assay [2] (168 h), 1.15 nM.

In the case of `Cc1cc(N)nc(-c2ncc3c(N4CC5CCC(C4)N5)nc(OC[C@@]45CCCN4C[C@@]4(CC4(F)F)C5)nc3c2F)c1C(F)(F)F` [Example 18, 6-(4-((1R,5S)-3,8-diazabicyclo[3.2.1]octan-3-yl)-2-(((trans)-2,2-difluorodihydro-1′H,3′H-spiro[cyclopropan-1,2′-pyrrolizin]-7a′(5′H)-yl)methoxy)-8-fluoropyridino[4,3d]pyrimidin-7-yl)-4-methyl-5-(trifluoromethyl)pyridin-2-amine], the IC50 in assay [1] (Homo sapiens, ASPC1, 168 h) stood at 307 nM; in assay [2] (168 h), 9.83 nM.

Turning to `C#Cc1c(F)ccc2cc(O)cc(-c3ncc4c(N5C[C@H]6CC[C@@](C)(C5)N6)nc(OC[C@@]56CCCN5C[C@@]5(CC5(F)F)C6)nc4c3F)c12` [Example 20A, 4-(2-(((1S,7a'S)-2,2-difluorodihydro-1′H,3′H-spiro[cyclopropan-1,2′-pyrrolizin]-7a′(5′H)-yl)methoxy)-8-fluoro-4-((1S,5R)-1-methyl-3,8-diazabicyclo[3.2.1]octan-3-yl)pyridino[4,3-d]pyrimidin-7-yl)-5-ethynyl-6-fluoronaphthol-2-ol], the 50% inhibitory concentration (IC50) in assay [1] worked out at 4.11 nM; in assay [2], 0.44 nM.

For `C#Cc1c(F)ccc2cc(O)cc(-c3ncc4c(N5C[C@@H]6CC[C@](C)(C5)N6)nc(OC[C@@]56CCCN5C[C@@]5(CC5(F)F)C6)nc4c3F)c12` [Example 20B, 4-(2-(((1S,7a'S)-2,2-difluorodihydro-1′H,3′H-spiro[cyclopropan-1,2′-pyrrolizin]-7a′(5′H)-yl)methoxy)-8-fluoro-4-((1R,5S)-1-methyl-3,8-diazabicyclo[3.2.1]octan-3-yl)pyridino[4,3-d]pyrimidin-7-yl)-5-ethynyl-6-fluoronaphthol-2-ol], the IC50 in assay [1] came to 4.86 nM; in assay [2], 0.58 nM.

For the molecule `Cc1c(F)cc2[nH]ncc2c1-c1ncc2c(N3C[C@H]4CC[C@@H](C3)N4)nc(OC[C@@]34CCCN3C[C@@]3(CC3(F)F)C4)nc2c1F` [Example 22, (1S,7a'S)-7a′-(((4-((1R,5S)-3,8-diazabicyclo[3.2.1]octan-3-yl)-8-fluoro-7-(6-fluoro-5-methyl-1H-indazol-4-yl)pyridino[4,3-d]pyrimidin-2-yl)oxy)methyl)-2,2-difluorodihydro-1′H,3′H-spiro[cyclopropan-1,2′-pyrrolizin]], the IC50 was more than 1000 nM in assay [1] (Homo sapiens, ASPC1, 168 h) and more than 100 nM in assay [2] (168 h).

Turning to `Nc1nc2c(-c3ncc4c(N5C[C@H]6CC[C@@H](C5)N6)nc(OC[C@@]56CCCN5C[C@@]5(CC5(F)F)C6)nc4c3F)ccc(F)c2s1` [Example 23, 4-(4-((1R,5S)-3,8-diazabicyclo[3.2.1]octan-3-yl)-2-(((1S,7a'S)-2,2-difluorodihydro-1′H,3′H-spiro[cyclopropan-1,2′-pyrrolizin]-7a′(5′H)-yl)methoxy)-8-fluoropyridino[4,3-d]pyrimidin-7-yl)-7-fluorobenzo[d]thiazol-2-amine], the IC50 in assay [1] (Homo sapiens, ASPC1, 168 h) is more than 1000 nM; in assay [2] (168 h), more than 100 nM.

Consider `Nc1c(Cl)cc(Cl)c(F)c1-c1ncc2c(N3C[C@H]4CC[C@@H](C3)N4)nc(OC[C@@]34CCCN3C[C@@]3(CC3(F)F)C4)nc2c1F` [Example 25, 2-(4-((1R,5S)-3,8-diazabicyclo[3.2.1]octan-3-yl)-2-(((1S,7a'S)-2,2-difluorodihydro-1′H,3′H-spiro[cyclopropan-1,2′-pyrrolizin]-7a′(5′H)-yl)methoxy)-8-fluoropyridino[4,3-d]pyrimidin-7-yl)-4,6-dichloro-3-fluoroaniline], for which the IC50 in assay [1] (Homo sapiens, ASPC1, 168 h) is more than 1000 nM; in assay [2] (168 h) it was more than 100 nM.

For the molecule `C#Cc1c(F)ccc2cc(O)cc(-c3ncc4c(N5CCC6CCC(C5)N6)nc(OC[C@@]56CCCN5C[C@@]5(CC5(F)F)C6)nc4c3F)c12` (stereo partly drawn) [Example 28, 4-(4-(3,9-diazabicyclo[4.2.1]nonan-3-yl)-2-(((1S,7a'S)-2,2-difluorodihydro-1′H,3′H-spiro[cyclopropan-1,2′-pyrrolizin]-7a′(5′H)-yl)methoxy)-8-fluoropyridino[4,3-d]pyrimidin-7-yl)-5-ethynyl-6-fluoronaphthalen-2-ol], the IC50 worked out at 188 nM in assay [1] (Homo sapiens, ASPC1, 168 h) and 19.8 nM in assay [2] (168 h).

For the molecule `C#Cc1c(F)ccc2cc(O)cc(-c3ncc4c(N5CCCC(C)(N)C5)nc(OC[C@@]56CCCN5C[C@@]5(CC5(F)F)C6)nc4c3F)c12` (stereo partly drawn) [Example 29, 4-(4-(3-amino-3-methylpiperidin-1-yl)-2-(((1S,7a'S)-2,2-difluorodihydro-1′H,3′H-spiro[cyclopropan-1,2′-pyrrolizin]-7a′(5′H)-yl)methoxy)-8-fluoropyridino[4,3-d]pyrimidin-7-yl)-5-ethynyl-6-fluoronaphthalen-2-ol], the IC50 in assay [1] (Homo sapiens, ASPC1, 168 h) is 180 nM; in assay [2] (168 h), 17.7 nM.

Turning to `COc1c(-c2c(F)c(N)cc(C)c2C(F)(F)F)ncc2c(N3C[C@H]4CC[C@@H](C3)N4)nc(OC[C@@]34CCCN3C[C@@]3(CC3(F)F)C4)nc12` [Example 30, 3-(4-((1R,5S)-3,8-diazabicyclo[3.2.1]octan-3-yl)-2-(((1S,7a'S)-2,2-difluorodihydro-1′H,3′H-spiro[cyclopropan-1,2′-pyrrolizin]-7a′(5′H)-yl)methoxy)-8-methoxypyridino[4,3-d]pyrimidin-7-yl)-2-fluoro-5-methyl-4-(trifluoromethyl)aniline], the IC50 in assay [1] (Homo sapiens, ASPC1, 168 h) is more than 1000 nM; in assay [2] (168 h), more than 100 nM.

With `COc1c(-c2cc(N)cc(Cl)c2C(F)(F)F)ncc2c(N3C[C@H]4CC[C@@H](C3)N4)nc(OC[C@@]34CCCN3C[C@@]3(CC3(F)F)C4)nc12` [Example 31, 3-(4-((1R,5S)-3,8-diazabicyclo[3.2.1]octan-3-yl)-2-(((1S,7a'S)-2,2-difluorodihydro-1′H,3′H-spiro[cyclopropan-1,2′-pyrrolizin]-7a′(5′H)-yl)methoxy)-8-methoxypyridino[4,3-d]pyrimidin-7-yl)-5-chloro-4-(trifluoromethyl)aniline], the IC50 in assay [1] (Homo sapiens, ASPC1, 168 h) is 259 nM; in assay [2] (168 h), 24.3 nM.

As to `N#Cc1c(N)sc2cc(F)cc(-c3ncc4c(N5C[C@H]6CC[C@@H](C5)N6)nc(OC[C@@]56CCCN5C[C@@]5(CC5(F)F)C6)nc4c3F)c12` [Example 32, 4-(4-((1R,5S)-3,8-diazabicyclo[3.2.1]octan-3-yl)-2-(((1S,7a'S)-2,2-difluorodihydro-1′H,3′H-spiro[cyclopropan-1,2′-pyrrolizin]-7a′(5′H)-yl)methoxy)-8-fluoropyridino[4,3-d]pyrimidin-7-yl)-2-amino-6-fluorobenzo[b]thiophen-3-carbonitrile], the IC50 was determined as 483 nM in assay [1] (Homo sapiens, ASPC1, 168 h) and 21 nM in assay [2] (168 h).
